Assay results reported in patent US20230192878A1, “METHODS, THERAPIES AND USES FOR TREATING CANCER” (PFIZER INC., priority 2020, published 2023).

Experiments:
[1] = test system: RPMI8226; assay: Soluble BCMA (sBCMA) shedding after GSI (ELISA); assay type: cell-based, Human; design: unit not given here; conditions: Table 6 (sBCMA in supernatant, ELISA), 24 hours
Procedure: (§1) Multiple myeloma cells (MM.1S, OPM2, H929, Molp8, RPMI8226) were seeded in a 96-well U-bottom plate at 40,000 cells/well. Cells were incubated for 24 hours in the presence of GSI diluted in RPMI medium (0.1% DMSO). The following concentrations of the GSI were tested: 1000 nM, 500 nM, 100 nM, 50 nM, 25 nM, 10 nM, 5 nM, 2.5 nM, 1 nM, 0.1 nM, 0.01 nM. After 24 hours, cell culture medium was collected and concentration of sBCMA was measured in supernatants using Human BCMA/TNFRSF17 DuoSet ELISA kit (R&D Systems) according to manufacturer's instructions.

[2] = test system: H929; assay: Soluble BCMA (sBCMA) shedding after GSI (ELISA); assay type: cell-based, Human; design: unit not given here; conditions: Table 6 (sBCMA in supernatant, ELISA), 24 hours
Procedure: as §1

[3] = test system: OPM2; assay: Cell surface BCMA expression after GSI, time course and washout; assay type: cell-based
Procedure: (§2) Multiple myeloma cells (MM.1S, OPM2, H929, Molp8, RPMI8226) were seeded in a 6-well plate at 800,000 cells/2 ml/well with GSI diluted at 1 μM in RPMI medium (with 0.1% DMSO). Cells were collected to evaluate cell surface BCMA expression at baseline, and then at 3 hours, 6 hours and 24 hours after addition of the GSI. After 24 hours of incubation with the GSI, cells were washed twice in PBS and re-plated in fresh 6-well plates. […] At the indicated time points, samples were stained with a ZombieNIR Viability dye (Biolegend) for 20 minutes at room temperature at 1 in 500 dilution in PBS, washed with PBS+2% FBS and further stained with anti-BCMA PE-labelled antibody diluted in PBS+2% FBS for 30 minutes at 4° C. Samples were acquired on BD Flow Cytometer and analyzed using FlowJo software. Dead cells were removed from the analysis by gating on ZombieNIR negative population. BCMA MFI was plotted as a histogram.

[4] = test system: MM.1S; assay: as above; assay type: cell-based
Procedure: as §2

[5] = test system: RPMI8226; assay: as above; assay type: cell-based
Procedure: as §2

[6] = test system: Molp8; assay: as above; assay type: cell-based
Procedure: as §2

[7] = test system: H929; assay: as above; assay type: cell-based
Procedure: as §2

[8] = test system: H929-luc; assay: BCMAxCD3 bispecific mediated cell killing with human T cells, with or without GSI; assay type: cell-based; conditions: 60 hours, with or without 1 μM GSI
Procedure: (§3) CD3^+ T cells from PBMCs (Stem Cell Technologies) were negatively selected using EasySep Human T cell enrichment kit (Stem Cell Technologies). Multiple myeloma cells expressing luciferase (MM.1S-luc, OPM2-luc, H929-luc, Molp8-luc, RPM18226-luc) were treated with 1 μM GSI […]. After 24 hours, cells were seeded with 50,000 CD3^+ pan T cells in a clear 96-well V-bottom plate. Cells were further treated with a range of BCMAxCD3 bispecific antibody concentrations with or without 1 μM GSI. 60 hours after treatment, luciferase activity in treated cells was analyzed using NeoLite reagent kit (Perkin Elmer) and acquired on VictorX multimode plate reader (Perkin Elmer). Cell viability was calculated by dividing luciferase activity of treated cells over luciferase activity of untreated control (no BCMAxCD3 bispecific antibody added).

[9] = test system: Molp8-luc; assay: as above; assay type: cell-based; conditions: 60 hours, with or without 1 μM GSI
Procedure: as §3

## CCC[C@H](N[C@H]1CCc2cc(F)cc(F)c2C1)C(=O)Nc1cn(C(C)(C)CNCC(C)(C)C)cn1 [GSI, nirogacestat]
[1]; RPMI8226, GSI 0.01 nM
  BCMA (-PE) MFI: 4710.8
[1]; RPMI8226, GSI 0.1 nM
  BCMA (-PE) MFI: 3333.8
[1]; RPMI8226, GSI 1 nM
  BCMA (-PE) MFI: 2647.5
[1]; RPMI8226, GSI 2.5 nM
  BCMA (-PE) MFI: 2398
[1]; RPMI8226, GSI 5 nM
  BCMA (-PE) MFI: 2525.6
[1]; RPMI8226, GSI 10 nM
  BCMA (-PE) MFI: 1926.2
[1]; RPMI8226, GSI 25 nM
  BCMA (-PE) MFI: 836.5
[1]; RPMI8226, GSI 50 nM
  BCMA (-PE) MFI: 249.5
[1]; RPMI8226, GSI 100 nM
  BCMA (-PE) MFI: 64.1
[1]; RPMI8226, GSI 500 nM
  BCMA (-PE) MFI: 0 ± 0
[1]; RPMI8226, GSI 1000 nM
  BCMA (-PE) MFI: 0 ± 0
[2]; H929, GSI 0.01 nM
  BCMA (-PE) MFI: 24084.8
[2]; H929, GSI 0.1 nM
  BCMA (-PE) MFI: 27414.8
[2]; H929, GSI 1 nM
  BCMA (-PE) MFI: 19516.4
[2]; H929, GSI 2.5 nM
  BCMA (-PE) MFI: 12874.8
[2]; H929, GSI 5 nM
  BCMA (-PE) MFI: 8438.2
[2]; H929, GSI 10 nM
  BCMA (-PE) MFI: 4901.7
[2]; H929, GSI 25 nM
  BCMA (-PE) MFI: 2336.4
[2]; H929, GSI 50 nM
  BCMA (-PE) MFI: 1460.7
[2]; H929, GSI 100 nM
  BCMA (-PE) MFI: 1110.6
[2]; H929, GSI 500 nM
  BCMA (-PE) MFI: 716.5
[2]; H929, GSI 1000 nM
  BCMA (-PE) MFI: 625.1
[3]; OPM2, GSI 1 μM for 24 h, 3 h post wash
  BCMA (-PE) MFI: 21621
[3]; OPM2, GSI 1 μM for 24 h, 5 h post wash
  BCMA (-PE) MFI: 11050
[3]; OPM2, GSI 1 μM for 24 h, 24 h post wash
  BCMA (-PE) MFI: 2624
[3]; OPM2, GSI 1 μM, 3 h after GSI
  BCMA (-PE) MFI: 9257
[3]; OPM2, GSI 1 μM, 6 h after GSI
  BCMA (-PE) MFI: 9854
[3]; OPM2, GSI 1 μM, 24 h after GSI
  BCMA (-PE) MFI: 20592
[4]; GSI 1 μM for 24 h, 3 h post wash
  BCMA (-PE) MFI: 33509
[4]; GSI 1 μM for 24 h, 5 h post wash
  BCMA (-PE) MFI: 23906
[4]; GSI 1 μM for 24 h, 24 h post wash
  BCMA (-PE) MFI: 11170
[4]; GSI 1 μM, 3 h after GSI
  BCMA (-PE) MFI: 13690
[4]; GSI 1 μM, 6 h after GSI
  BCMA (-PE) MFI: 14920
[4]; GSI 1 μM, 24 h after GSI
  BCMA (-PE) MFI: 25602
[5]; RPMI8226, GSI 1 μM for 24 h, 3 h post wash
  BCMA (-PE) MFI: 6557
[5]; RPMI8226, GSI 1 μM for 24 h, 5 h post wash
  BCMA (-PE) MFI: 4437
[5]; RPMI8226, GSI 1 μM for 24 h, 24 h post wash
  BCMA (-PE) MFI: 2688
[5]; RPMI8226, GSI 1 μM, 3 h after GSI
  BCMA (-PE) MFI: 4437
[5]; RPMI8226, GSI 1 μM, 6 h after GSI
  BCMA (-PE) MFI: 4527
[5]; RPMI8226, GSI 1 μM, 24 h after GSI
  BCMA (-PE) MFI: 6340
[6]; Molp8, GSI 1 μM for 24 h, 3 h post wash
  BCMA (-PE) MFI: 7523
[6]; Molp8, GSI 1 μM for 24 h, 5 h post wash
  BCMA (-PE) MFI: 5050
[6]; Molp8, GSI 1 μM for 24 h, 24 h post wash
  BCMA (-PE) MFI: 2960
[6]; Molp8, GSI 1 μM, 3 h after GSI
  BCMA (-PE) MFI: 2461
[6]; Molp8, GSI 1 μM, 6 h after GSI
  BCMA (-PE) MFI: 3098
[6]; Molp8, GSI 1 μM, 24 h after GSI
  BCMA (-PE) MFI: 5307
[7]; H929, GSI 1 μM for 24 h, 3 h post wash
  BCMA (-PE) MFI: 15422
[7]; H929, GSI 1 μM for 24 h, 5 h post wash
  BCMA (-PE) MFI: 9313
[7]; H929, GSI 1 μM for 24 h, 24 h post wash
  BCMA (-PE) MFI: 8423
[7]; H929, GSI 1 μM, 3 h after GSI
  BCMA (-PE) MFI: 3653
[7]; H929, GSI 1 μM, 6 h after GSI
  BCMA (-PE) MFI: 3423
[7]; H929, GSI 1 μM, 24 h after GSI
  BCMA (-PE) MFI: 8245

## PF-06863135: heterodimeric humanized full-length bispecific antibody with one BCMA binding arm and one CD3 binding arm
[8]; BCMA × CD3 0.00001 nM
  H929 cell viability (% control): 80.2 ± 0.3 % control
[8]; BCMA × CD3 0.00005 nM
  H929 cell viability (% control): 81.1 ± 0.2 % control
[8]; BCMA × CD3 0.00026 nM
  H929 cell viability (% control): 79 ± 0.8 % control
[8]; BCMA × CD3 0.00128 nM
  H929 cell viability (% control): 77.8 ± 3.3 % control
[8]; BCMA × CD3 0.0064 nM
  H929 cell viability (% control): 81.2 ± 3^ % control
[8]; BCMA × CD3 0.032 nM
  H929 cell viability (% control): 98.6 ± 1.2 % control
[8]; BCMA × CD3 0.16 nM
  H929 cell viability (% control): 23.2 ± 7.2 % control
[8]; BCMA × CD3 0.8 nM
  H929 cell viability (% control): 11.3 ± 1.5 % control
[8]; BCMA × CD3 4 nM
  H929 cell viability (% control): 8.6 ± 3 % control
[9]; BCMA × CD3 0.00001 nM
  Molp8 cell viability (% control): 64 ± 11.6 % control
[9]; BCMA × CD3 0.00005 nM
  Molp8 cell viability (% control): 59.1 ± 4.6 % control
[9]; BCMA × CD3 0.00026 nM
  Molp8 cell viability (% control): 58.5 ± 0.6 % control
[9]; BCMA × CD3 0.00128 nM
  Molp8 cell viability (% control): 66.7 ± 0.3 % control
[9]; BCMA × CD3 0.0064 nM
  Molp8 cell viability (% control): 55.2 ± 1.3 % control
[9]; BCMA × CD3 0.032 nM
  Molp8 cell viability (% control): 66.1 ± 4.9 % control
[9]; BCMA × CD3 0.16 nM
  Molp8 cell viability (% control): 8 ± 2 % control
[9]; BCMA × CD3 0.8 nM
  Molp8 cell viability (% control): 6.1 ± 0.7 % control
[9]; BCMA × CD3 4 nM
  Molp8 cell viability (% control): 5.2 ± 0.3 % control
